Assay results from ChEMBL document CHEMBL1157539, “Thousands of chemical starting points for antimalarial lead identification” (Nature, 2010).

system: Plasmodium falciparum; assay: GSK_TCMDC: Inhibition of Plasmodium falciparum 3D7 in whole erythrocytes, using parasite LDH activity as an index of growth.; type: functional, organism-based; conditions: Plasmodium falciparum, 3D7

Compound	XC50
CC(C)n1c(C(C)(C)C)cc2c3c(N)nc(N)nc3ccc21	3.2 nM
O=C(Nc1ccc(C(F)(F)F)cc1)N[C@H]1CCN(CCCCCNC(=O)C2CC2c2ccc(Cl)c(Cl)c2)C1 (stereo partly drawn)	1100 nM
O=C(NC1CCN(Cc2ccccc2)CC1)c1ccc(-c2nc3cc(Cl)c(F)cc3[nH]2)cc1	245 nM
CC(CN(C)C)C(=O)Nc1ccc(-c2ccc(-c3nc4cc(F)ccc4[nH]3)cc2)cc1 (stereo not drawn)	773 nM
CC1CCCCC1N(C)C1CCN(CCCNC(=O)C=Cc2ccc(Cl)cc2Cl)CC1 (stereo not drawn)	650 nM
COc1ccc(S(=O)(=O)N(c2cc(Br)cc3c2OCC3)S(=O)(=O)c2ccc(OC)c(N3CCN(C)CC3)c2)cc1N1CCN(C)CC1	1170 nM
O=C(/C=C/c1cccs1)NCC(NCCCNc1cc(=O)c2ccccc2[nH]1)c1cc(Br)cc(Br)c1 (stereo not drawn)	888 nM
CN(C)CCNc1cc(-c2ccc3ccccc3c2)nc2ccccc12	350 nM
O=[N+]([O-])c1nc(Br)n(Cc2ccc(Cl)cc2)n1	360 nM
O=c1cc(NCCC(CNCc2ccc(Br)o2)NCc2cc(Br)cc(Br)c2)[nH]c2ccccc12 (stereo not drawn)	860 nM
Cc1ccc(NC(=O)N2CCC(n3c(-c4ccccc4)nc4cccnc43)CC2)cc1F	534 nM
Cc1cccc(CC2CC(=O)N(c3ccc([N+](=O)[O-])cc3)C2=O)c1 (stereo not drawn)	200 nM
FC(F)(F)c1ccc(-c2cncc(-c3ccc(C(F)(F)F)cc3)n2)cc1	759 nM
Cc1nc(C)c(-c2ccc(Oc3ccc(Cl)cc3)cc2)c(O)c1I	957 nM
O=c1cc(NCCC(CNCc2ccoc2)NCc2cc(Br)cc(Br)c2)[nH]c2ccccc12 (stereo not drawn)	910 nM
CCC(=O)Nc1nnc(Cc2ccc(OC)c(OC)c2)s1	910 nM
CN(CCC1CCN(C(=O)/C=C/c2ccc(Cl)c(Cl)c2)CC1)C1CCC(c2c[nH]c3ccccc23)CC1 (stereo not drawn)	774 nM
CC1(C)N=C(N)N=C(N)N1c1ccc(I)cc1	44.4 nM
O=C(NCc1cccc(C(F)(F)F)c1)c1ccc(-c2nc3cc(F)c(F)cc3[nH]2)cc1	776 nM

Compound	XC50
O=C(/C=C/c1ccc(Cl)c(Cl)c1)N1CCC(CN2CCC(c3c(-c4ccc(F)cc4)[nH]c4ccccc34)CC2)CC1	175 nM
C=C[C@H]1CN2CC[C@H]1C[C@H]2[C@H](OS(=O)(=O)O)c1ccnc2ccccc12	624 nM
CC(C)C[C@H](NC(=O)c1cc2ccccc2s1)C(=O)N[C@H]1CCN(Cc2ccc(OC3CCN(C)C3)c(Cl)c2)C1 (stereo partly drawn)	782 nM
COc1cc2nc(NCc3ccc(S(N)(=O)=O)cc3)nc(Nc3ccc(Oc4ccccc4)cc3)c2cc1OC	445 nM
Cc1ccccc1C1CCN(C2CCC(NC(=O)/C=C/c3cc(F)cc(F)c3)CC2)CC1 (stereo not drawn)	833 nM
CCCCCN1CCCC(NS(=O)(=O)c2ccc(C(=O)Nc3ccc(C(F)(F)F)cc3)cc2)C1 (stereo not drawn)	1630 nM
COc1cc(C(=O)N2CCOC(CCN3CCC[C@H]3C(=O)Nc3ccccc3)(c3ccc(Cl)c(Cl)c3)C2)cc(OC)c1OC (stereo partly drawn)	733 nM
CCc1c(CCNCCCC(C)CCNCCc2ccc(OC)c(OC)c2CC)ccc(OC)c1OC (stereo not drawn)	1110 nM
Fc1ccccc1CNc1ncc(-c2ccsc2)c(-c2nccs2)n1	54 nM
O=C(Nc1cccnc1)c1cc(-c2cc(Cl)ccc2O)n[nH]1	719 nM
Cc1ccc(-n2cc(CNCC3CCN(CCO)CC3)c(-c3ccc(F)cc3)n2)cc1	2000 nM
N=C(N)c1ccc(NC(=O)Cc2nc3cc(C(=N)N)ccc3[nH]2)cc1	1380 nM
CCOC(=O)c1cncc(/C=C/c2cc(C)cnc2N)c1	424 nM
CN1CCN(c2ccnc3ccc(NC(=O)Cc4ccc(OCc5ccccc5)cc4)cc23)CC1	628 nM
Cc1cc(NCCC(=O)NCCOc2ccccc2)nc(NCCOc2ccccc2)n1	867 nM
Cn1ccnc1CNC(=O)c1ccc(-c2cccc(-c3nc4cc(F)ccc4[nH]3)c2)cc1	980 nM
O=C(Nc1ccc(Cl)c(Cl)c1)C1CCC(=O)N1[C@@H](Cc1ccccc1)C(=O)NCCc1ccc(Cl)cc1 (stereo partly drawn)	1100 nM
CN(CCN)Cc1ccc(-c2ccc(-c3nc4cc(F)ccc4[nH]3)s2)cc1	1070 nM
O=C(NCCCCN1CCC(c2ccc3c(c2OCC2COCO2)CCCC3)CC1)c1ccc(-c2ccc(C(F)(F)F)cc2)cc1 (stereo not drawn)	868 nM
